Test results as given in patent US10124065B2, “Lipids and lipid compositions for the delivery of active agents” (Novartis AG, priority 2013, dated 2018).

How the values were obtained:
[1] = Polydispersity index (PDI) of lipid nanoparticle (dynamic light scattering); type: physicochemical
Method: Unless indicated otherwise, all PDIs referred to herein are the PDI of the fully formed nanoparticle, as measured by dynamic light scattering on a Malvern Zetasizer. The nanoparticle sample was diluted in phosphate buffered saline (PBS) so that the count rate was approximately 200-400 kcts. The data is presented in Tables 4 and 5 as a weighted average of the intensity measure.

human leptin = experiment: Mouse intravenous tail vein injection of modified synthetic leptin mRNA, human leptin ELISA; type: in vivo, C57BL/6 mouse; details: human leptin in mouse plasma, 10 μg leptin mRNA
Method: Before the tail vein injection, mouse body weights were recorded and diet weighted, with mice grouped according to their body weights. Mice were prepared by warming them under a heating lamp for ˜2 minutes, with the mice about 12 inches from heat lamp.
For the tail vein injection procedure, the mice were placed in a restrainer and their tails cleaned with 70% alcohol. A 27 gauge needle (Becton Dickinson, Catalogue #305109) connected with a 1 ml syringe (Becton Dickinson, Catalogue #309659) was inserted into the tail vein, with bevel facing up, and the syringe plunger was pulled backwards to ensure blood is drawn into the syringe. The desired volume of modified synthetic leptin mRNA was injected by hand with moderate pressure and speed. The needle was then withdrawn and bleeding stopped by adding pressure to injection site with gauze.
Single housed, 8-9 week old, male C57BL/6 mice were used for the in vivo study. FPLC purified modified synthetic leptin mRNA (SEQ ID NO: 5) in which the uridines were substituted with pseudouridine was packaged in a cationic lipid (N:P molar ratio=8:1) and then were diluted in injectable saline at a dose of 10 μg per average group body weight.
On day 0, animals were weighed and sorted according to average body weight. Mice were dosed, and food intake (FI) was recorded, on each of days 1-7 and days 9, 11, and 16.
Human leptin in mouse plasma was measured by ELISA. Antibodies purchased from the R&D Systems duoset (Cat# DY398E, part#840279 for capture antibody and part#840280 for detection antibody) were reconstituted using PBS and titered, again using PBS. The capture antibody was coated at 4 ug/ml in 30 ul/well on a white Nunc® Maxisorp 384 well plate (Cat#460372). After an overnight incubation at room temperature the capture antibody was aspirated and the plate blocked for 2 hours at room temperature with 90 ul/well of KPL milk blocker (Cat#50-82-00). Once the incubation was completed the plate was aspirated and recombinant standards and samples were added to the plate at 30 ul/well for 2 hours at 37° C. while shaking at 600 rpm. Sample/standard dilutions were made using casein sample diluent. Washing/aspiration 3 times with 100 ul/well followed, using Teknova plate wash solution (Cat# P1192). Next, detection antibody was diluted using casein detection antibody diluent to 12.5 ng/ml and added at 30 ul/well for 2 hours room temperature. After this incubation, the plate was washed again and a solution of poly-streptavidin-HRP (Cat#21140) at a 1:1250 dilution in HRP dilution buffer was added to each well (30 ul/well) and incubated for 30 minutes room temperature. A final wash/aspiration removed the HRP solution and a chemiluminescent substrate was added at 30 ul/well (Cat#1859678 & 1859679). The plate was quickly read using a SpectramaxM5 plate reader with a 50 ms integration time. The dynamic range of the ELISA is from 100-2,000 pg/ml (6.25-125 pM) of human leptin.

[2] = Particle size of lipid nanoparticle (dynamic light scattering, Malvern Zetasizer); type: physicochemical
Outline: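 Sizes are average diameters of fully formed nanoparticles measured by dynamic light scattering. Samples were diluted in PBS to a count rate of about 200–400 kcts. Values are intensity-weighted Z-average sizes.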

[3] = Measurement of mRNA encapsulation (Quant-iT Ribogreen); type: physicochemical; details: leptin mRNA in lipid nanoparticles (cationic lipid, DSPC, cholesterol, stealth lipid)
Method: All equipment and disposable supplies were certified free of RNase activity by the manufacturer or rendered RNase free by use of the RNaseZap reagent (LifeTechnologies). mRNA was encapsulated at a cationic lipid amine to mRNA phosphate (N:P) molar ratio of 4:1. Lipids (cationic lipid, DSPC, cholesterol and lipidated PEG or stealth lipid) were dissolved in ethanol. The molar ratios were […], respectively. The mixture was sonicated briefly, then gently agitated for 5 minutes and then maintained at 37° C. until use. mRNA was exchanged into citrate buffer pH 5.8-6.0 by use of Amicon Ultra-15 centrifugal concentrators, and the final concentration was adjusted to 0.5 mg/ml and held at 37° C. until use. An equal volume of lipids in ethanol, mRNA in citrate buffer, and citrate buffer alone were drawn into disposable syringes. Tubing leading from syringes containing lipids and mRNA are attached to the T junction, and tubing leading from the syringe containing citrate buffer alone was paired with the tubing exiting the T-junction over a collection vessel containing a stir bar on an active stir plate. Syringes were placed in a syringe pump set to expel contents at a flow rate of 1 ml per minute.
The pump was activated, and the collected mRNA in lipid nanoparticles was transferred to SnakeSkin dialysis tubing (10,000 MWCO, Thermo Scientific). Material was dialyzed against RNAse- and pyrogen-free 1× phosphate buffered saline overnight at 4° C.
Percent encapsulation of mRNA in lipid nanoparticles was determined using the Quant-iT Ribogreen RNA Assay kit (Life Technologies). The LNP-mRNA suspension was assayed in buffer (mRNA outside the particle), and buffer plus Triton X-100 detergent (total mRNA). The difference calculated was the mRNA inside the particle. A 1000 ng/mL stock from the RNA provided in the kit was prepared and used to generate a standard curve (0 ng/ml, 15.63-1000 ng/ml) in TE and TE+0.75% Triton X-100. LNP-mRNA samples in TE buffer and TE buffer+0.75% Triton X-100 were prepared with appropriate dilution so that reading was in the range of standard curve (400-2,000 fold). In a 384-well plate (Costar non-treated #3573) 0.04 ml of standard (in duplicate) or sample (in triplicate) were added per well. Ribogreen reagent was diluted 240-fold in TE buffer and added 0.06 ml per well. The contents of wells were mixed and fluorescence was measured (excitation=480 nm, emission=520 nm). Background values (no RNA) were subtracted from standard and test sample values and the concentrations of RNA were determined in the samples using the standard curves. The percent encapsulation of the sample was determined by dividing the difference in concentrations between sample+triton and sample in buffer alone by the sample+triton concentration.

[4] = leptin mRNA lipid nanoparticles
[5] = FVII siRNA LNP, Chol/DSPC/S010, molar ratio 45/44/9/2
[6] = FVII siRNA LNP, Chol/DSPC/S010, molar ratio 45/44/9/2, Z-average

Row | PDI [1, 4] | Size (nm) [2, 4] [nm] | % encapsulation [3] [%] | PDI [1, 5] | Size (nm) [2, 6] [nm] | Compound | Leptin expression IV-C57BI/6 (ng/mL), 6 h (human leptin; 6 h) | Leptin expression IV-C57BI/6, 24 h (human leptin) [ng/mL]
1 | 0.116 | 140.5 | 91.6 | – | – | CCCCCCCCCOC(=O)CCCCCCC(=O)OCc1cc(COC(=O)CCCCCCC(=O)OCCCCCCCCC)cc(CN(C)C)c1 [Example 79, O′^1,O^1-((5-((dimethylamino)methyl)-1,3-phenylene)bis(methylene)) 8-dinonyl dioctanedioate] | 1.36 (6 h) ng/mL | –
2 | 0.150 | 164.0 | 71.1 | 0.043 | 178.2 | CCCCCCCC(=O)OCCCCCCCCCCOC(=O)CCC(=O)OCc1cc(COC(=O)CCC(=O)OCCCCCCCCCCOC(=O)CCCCCCC)cc(CN(C)C)c1 [Example 78, O,O′-((5-((dimethylamino)methyl)-1,3-phenylene)bis(methylene))bis(10-(octanoyloxy)decyl)disuccinate] | – | 0.96
3 | 0.090 | 164.7 | 80.9 | 0.073 | 87.54 | CCCCCCCCCCCCOC(=O)CCCCCOc1cc(CN(C)C)cc(OCCCCCC(=O)OCCCCCCCCCCCC)c1 [Example 90, didodecyl 6,6′-((5-((dimethylamino)methyl)-1,3-phenylene)bis(oxy))dihexanoate] | – | 0.74
